Results on 4 compounds are retold here after US20030144346A1, “Methods and compositions for regulation of 5-alpha reductase activity” (priority 1997, published 2003).

A short description of experiment [1]: Body and organ weight loss. Type of experiment: in vivo. The following applies: compared with ECG. The protocol:
By way of example, male Sprague-Dawley rats (body weight 180 g±10 g) are used. Compounds are intraperitoneally injected into rats in one group each day for 7 days. Rats in the control group receive 0.1 ml 30% ethanol. Body and organ weights are determined.

In experiment [2] the target is T1, type 1 human 5α-reductase (HRED1) (Homo sapiens, UniProt P18405).
T1 sequence (P18405 1-259): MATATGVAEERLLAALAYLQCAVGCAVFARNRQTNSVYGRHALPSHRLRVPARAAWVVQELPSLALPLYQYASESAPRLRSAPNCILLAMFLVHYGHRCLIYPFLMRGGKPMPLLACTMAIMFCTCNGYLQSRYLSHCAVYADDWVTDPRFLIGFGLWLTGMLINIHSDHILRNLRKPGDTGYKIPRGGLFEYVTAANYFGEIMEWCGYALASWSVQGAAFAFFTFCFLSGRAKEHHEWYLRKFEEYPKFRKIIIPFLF
Put plainly: Cell free assay of 5α-reductase, microsomes of rat 1A cells expressing type 1 isoenzyme (HRED1).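 As to all read-outs here: microsomes from rat 1A cells expressing human type 1 5α-reductase, conversion of radiolabeled testosterone to dihydrotestosterone quantified by thin layer chromatography with radioanalytic scanning.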 Type of experiment: biochemical. More on the design: expressed in transfected cells; host or cells: rat 1A cells infected with pMV7 retrovirus; microsomes. Particulars: for pIC50: read-out: HRED1 IC50.

The target in experiment [3] is T2, type 2 human 5α-reductase (HRED2) (Homo sapiens, UniProt P31213).
T2 sequence (P31213 1-254): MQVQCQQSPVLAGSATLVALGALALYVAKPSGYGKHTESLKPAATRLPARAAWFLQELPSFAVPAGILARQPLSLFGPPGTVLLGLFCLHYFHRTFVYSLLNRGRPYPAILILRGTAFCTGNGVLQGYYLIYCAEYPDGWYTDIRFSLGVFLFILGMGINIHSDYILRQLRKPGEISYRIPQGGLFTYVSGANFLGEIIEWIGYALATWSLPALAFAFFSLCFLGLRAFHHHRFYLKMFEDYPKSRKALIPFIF
As to the kind of experiment: Whole cell assay of 5α-reductase, type 2 isoenzyme.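 As to all read-outs here: intact rat 1A cells genetically modified to carry human type 2 5α-reductase served as the enzyme source.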 The following applies: for inhibition at 100 µM: Table 7; for pIC50: Table 7, read-out: HCRED2 IC50. It is filed as cell-based. More on the design: expressed in transfected cells; host or cells: rat 1A cells infected with pMV7 retrovirus.

Experiment [4] concerns the target T1, type 1 human 5α-reductase (HRED1). Put plainly: Whole cell assay of 5α-reductase, type 1 isoenzyme.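 As to all read-outs here: intact rat 1A cells engineered to express the human type 1 5α-reductase isozyme serve as the enzyme source.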 More on the design: expressed in transfected cells; host or cells: rat 1A cells infected with pMV7 retrovirus. Type of experiment: cell-based. Particulars: whole cell assay; for inhibition at 100 µM / pIC50: Table 7; for pIC50: read-out: HCRED1 IC50.
For experiment [5], the system named is human prostate and breast tumors. As to the kind of experiment: Human prostate and breast tumors in animal models. It is filed as in vivo, nude mice. The protocol:
A compound of this invention can be used to treat breast or prostate cancer. […] By way of example, human prostate cancer PC-3 cells are grown in culture medium. About one million cells are injected into male nude mice and the growth of tumors followed. Within two weeks, the tumor grows to about 100 mm^3. Three tumor bearing mice are injected with a test compound each day.

Experiment [6] deals with 5α-reductases isozyme 2 and isozyme 1. Particulars: Russell and Wilson, 1994; cited from earlier work.
For experiment [7], the target named is T2, type 2 human 5α-reductase (HRED2). Put plainly: Cell free assay of 5α-reductase, microsomes of rat 1A cells expressing type 2 isoenzyme (HRED2).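 As to all read-outs here: labeled testosterone and its product dihydrotestosterone measured in microsomal reaction extracts via thin layer chromatography plus radioanalytic scanning.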 It is filed as biochemical. More on the design: expressed in transfected cells; host or cells: rat 1A cells infected with pMV7 retrovirus; microsomes. The following applies: for pIC50: read-out: HRED2 IC50.
Setting [8] is: cell free assay, Table 6 fatty acids.

pIC50: −log10 of the molar value. “And” between values parts separate entries of the source, which are not always exact repeats. Identical values can stand only once.

On to `O=C(O[C@@H]1Cc2c(O)cc(O)cc2O[C@@H]1c1cc(O)c(O)c(O)c1)c1cc(O)c(O)c(O)c1` [Epigallocatechin Gallate], for which the “reduction of body weight” value in experiment [1] is “significantly more effective”. The “inhibitory activity against type 1 isoenzyme, in words” value in experiment [2] (cell-free assay) is “high”. In addition, the “HRED2 % Inhibition @ 100 μM” value in experiment [3] (100 μM, Table 7, listed as EGCG) was 5% and 0%. Moreover, the “inhibitory activity in the whole cell assay, type 1 isoenzyme, in words” value in experiment [4] was “low”. The “effect on size of human prostate and breast tumors” value in experiment [5] is “surprisingly effective in suppressing and even reducing the size”.
Regarding `CC(C)(C)NC(=O)[C@H]1CC[C@H]2[C@@H]3CC[C@H]4NC(=O)C=C[C@]4(C)[C@H]3CC[C@]12C` [Finasteride], the “affinity for isozyme 2 relative to isozyme 1” value in experiment [6] was 30 fold.
Consider `CCCCCCCCCCCCCCCCCC(=O)O` [Stearic Acid, Stearic Acid C18:0], for which the inhibition at 100 µM in experiment [2] (100 μM, cell free assay, Table 6, read-out: HRED1 % Inhibition @ 100 μM) amounted to 71%; in experiment [3] (100 μM), 23%; in experiment [4], 10%; in experiment [7] (100 μM, cell free assay, Table 6, read-out: HRED2 % Inhibition @ 100 μM), 35%. Moreover, the pIC50 is 4.57 in experiment [2] (setting [8]), less than 4.00 in experiment [3], less than 4.00 in experiment [4] and less than 4.00 in experiment [7] (setting [8]).
For the compound `COc1cc(CCC(=O)CC(=O)CCc2ccc(O)c(OC)c2)ccc1O` [Tetrahydrocurcumin], the negative-log IC50 (pIC50) is 4.10 in experiment [2] (cell free assay, Table 3 curcumin and related compounds); 5.15 in experiment [3]; 4.44 in experiment [4]; 4.54 in experiment [7]. Also, the inhibition at 100 µM is 56% in experiment [2] (read-out: HRED1 % Inhibition @ 100 uM), 92% in experiment [3] (100 μM), 81% in experiment [4] and 73% in experiment [7] (read-out: HRED2 % Inhibition @ 100 uM).
